Experimental data published in ChEMBL document CHEMBL3351874, “Rational design of inhibitors of the bacterial cell wall synthetic enzyme GlmU using virtual screening and lead-hopping” (Bioorg Med Chem, 2014).

How the values were obtained:
[1] = biological target: Bifunctional protein GlmU (Escherichia coli, UniProt C3SLB7); experiment: Inhibition of Escherichia coli ATCC 27325 GlmU expressed in Escherichia coli HMS174(DE3) incubated for 15 mins prior to MgCl2 addition measured after 30 mins by malachite green staining-based assay
Sequence of Bifunctional protein GlmU (C3SLB7 whole entry): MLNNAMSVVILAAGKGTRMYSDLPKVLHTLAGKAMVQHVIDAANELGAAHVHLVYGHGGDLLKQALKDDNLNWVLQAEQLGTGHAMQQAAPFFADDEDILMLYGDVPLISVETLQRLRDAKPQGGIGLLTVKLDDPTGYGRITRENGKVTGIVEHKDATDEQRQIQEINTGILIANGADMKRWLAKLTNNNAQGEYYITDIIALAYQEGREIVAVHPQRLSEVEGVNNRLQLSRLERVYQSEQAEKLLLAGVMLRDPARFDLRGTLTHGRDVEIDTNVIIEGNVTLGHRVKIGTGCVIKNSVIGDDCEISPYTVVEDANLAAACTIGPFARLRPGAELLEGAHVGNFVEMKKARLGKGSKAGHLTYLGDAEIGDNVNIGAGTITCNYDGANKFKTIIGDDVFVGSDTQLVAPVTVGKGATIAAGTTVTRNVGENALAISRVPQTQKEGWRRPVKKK

[2] = Inhibition of Haemophilus influenzae ATCC 51907 GlmU expressed in Escherichia coli BL21(DE3) incubated for 15 mins prior to MgCl2 addition measured after 30 mins by malachite green staining-based assay
[3] = Serum protein binding in human at 10 uM after 30 mins by ultrafiltration method; type: ADME; details: read-out: PB (converted)
[4] = biological target: Aurora kinase B (Homo sapiens, UniProt Q96GD4); experiment: Inhibition of human AURKB incubated for 20 mins prior to MgCl2 addition measured after 90 mins by mobility shift assay
Sequence of Aurora kinase B (Q96GD4 whole entry): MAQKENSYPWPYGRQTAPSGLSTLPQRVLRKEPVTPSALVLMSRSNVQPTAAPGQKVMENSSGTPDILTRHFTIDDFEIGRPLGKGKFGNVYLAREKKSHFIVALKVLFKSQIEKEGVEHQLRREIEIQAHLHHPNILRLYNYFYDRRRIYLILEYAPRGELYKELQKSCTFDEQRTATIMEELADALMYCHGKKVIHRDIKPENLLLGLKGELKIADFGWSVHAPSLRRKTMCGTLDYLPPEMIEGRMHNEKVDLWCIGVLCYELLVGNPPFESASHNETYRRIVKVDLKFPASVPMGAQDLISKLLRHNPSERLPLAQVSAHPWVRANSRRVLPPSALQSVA

[5] = biological target: T1, Interleukin-1 receptor-associated kinase 4 (Homo sapiens, UniProt Q9NWZ3); experiment: Inhibition of human IRAK4 incubated for 20 mins prior to MgCl2 addition measured after 90 mins by mobility shift assay
T1 sequence (Q9NWZ3 whole entry): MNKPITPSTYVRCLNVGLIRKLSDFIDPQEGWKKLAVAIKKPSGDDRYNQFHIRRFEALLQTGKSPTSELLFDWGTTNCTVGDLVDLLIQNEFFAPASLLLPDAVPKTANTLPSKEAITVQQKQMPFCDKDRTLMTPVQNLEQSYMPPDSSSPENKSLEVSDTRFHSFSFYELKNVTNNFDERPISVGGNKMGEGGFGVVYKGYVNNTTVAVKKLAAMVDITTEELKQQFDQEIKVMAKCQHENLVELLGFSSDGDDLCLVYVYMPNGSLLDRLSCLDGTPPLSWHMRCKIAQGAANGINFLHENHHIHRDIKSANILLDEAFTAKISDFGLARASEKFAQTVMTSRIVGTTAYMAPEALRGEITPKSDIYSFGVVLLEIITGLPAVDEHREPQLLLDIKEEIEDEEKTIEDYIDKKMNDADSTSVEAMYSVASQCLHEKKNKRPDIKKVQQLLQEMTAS

[6] = biological target: Interleukin-1 receptor-associated kinase 1 (Homo sapiens, UniProt P51617); experiment: Inhibition of human IRAK1 incubated for 20 mins prior to MgCl2 addition measured after 90 mins by mobility shift assay
Sequence of Interleukin-1 receptor-associated kinase 1 (P51617 whole entry): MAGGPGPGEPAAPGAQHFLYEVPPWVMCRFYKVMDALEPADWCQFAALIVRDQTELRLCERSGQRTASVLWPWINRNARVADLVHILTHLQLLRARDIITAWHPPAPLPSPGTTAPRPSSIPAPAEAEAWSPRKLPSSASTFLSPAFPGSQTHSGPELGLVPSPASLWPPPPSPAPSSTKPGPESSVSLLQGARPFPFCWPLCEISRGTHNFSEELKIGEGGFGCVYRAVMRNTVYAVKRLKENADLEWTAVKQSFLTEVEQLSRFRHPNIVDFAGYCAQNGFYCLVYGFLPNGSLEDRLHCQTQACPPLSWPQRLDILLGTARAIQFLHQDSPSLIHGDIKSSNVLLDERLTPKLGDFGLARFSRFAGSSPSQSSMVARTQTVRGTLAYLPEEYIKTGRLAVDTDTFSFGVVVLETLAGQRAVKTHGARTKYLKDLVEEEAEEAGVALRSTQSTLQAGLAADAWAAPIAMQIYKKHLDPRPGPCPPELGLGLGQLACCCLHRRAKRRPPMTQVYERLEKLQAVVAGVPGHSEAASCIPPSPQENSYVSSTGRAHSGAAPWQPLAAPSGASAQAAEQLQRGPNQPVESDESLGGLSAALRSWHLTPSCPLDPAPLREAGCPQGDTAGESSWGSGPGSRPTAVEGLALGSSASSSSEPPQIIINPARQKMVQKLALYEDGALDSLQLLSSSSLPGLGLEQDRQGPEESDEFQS

[7] = biological target: Tyrosine-protein kinase JAK1 (Homo sapiens, UniProt P23458); experiment: Inhibition of human JAK1 incubated for 20 mins prior to MgCl2 addition measured after 90 mins by mobility shift assay
Sequence of Tyrosine-protein kinase JAK1 (P23458 whole entry): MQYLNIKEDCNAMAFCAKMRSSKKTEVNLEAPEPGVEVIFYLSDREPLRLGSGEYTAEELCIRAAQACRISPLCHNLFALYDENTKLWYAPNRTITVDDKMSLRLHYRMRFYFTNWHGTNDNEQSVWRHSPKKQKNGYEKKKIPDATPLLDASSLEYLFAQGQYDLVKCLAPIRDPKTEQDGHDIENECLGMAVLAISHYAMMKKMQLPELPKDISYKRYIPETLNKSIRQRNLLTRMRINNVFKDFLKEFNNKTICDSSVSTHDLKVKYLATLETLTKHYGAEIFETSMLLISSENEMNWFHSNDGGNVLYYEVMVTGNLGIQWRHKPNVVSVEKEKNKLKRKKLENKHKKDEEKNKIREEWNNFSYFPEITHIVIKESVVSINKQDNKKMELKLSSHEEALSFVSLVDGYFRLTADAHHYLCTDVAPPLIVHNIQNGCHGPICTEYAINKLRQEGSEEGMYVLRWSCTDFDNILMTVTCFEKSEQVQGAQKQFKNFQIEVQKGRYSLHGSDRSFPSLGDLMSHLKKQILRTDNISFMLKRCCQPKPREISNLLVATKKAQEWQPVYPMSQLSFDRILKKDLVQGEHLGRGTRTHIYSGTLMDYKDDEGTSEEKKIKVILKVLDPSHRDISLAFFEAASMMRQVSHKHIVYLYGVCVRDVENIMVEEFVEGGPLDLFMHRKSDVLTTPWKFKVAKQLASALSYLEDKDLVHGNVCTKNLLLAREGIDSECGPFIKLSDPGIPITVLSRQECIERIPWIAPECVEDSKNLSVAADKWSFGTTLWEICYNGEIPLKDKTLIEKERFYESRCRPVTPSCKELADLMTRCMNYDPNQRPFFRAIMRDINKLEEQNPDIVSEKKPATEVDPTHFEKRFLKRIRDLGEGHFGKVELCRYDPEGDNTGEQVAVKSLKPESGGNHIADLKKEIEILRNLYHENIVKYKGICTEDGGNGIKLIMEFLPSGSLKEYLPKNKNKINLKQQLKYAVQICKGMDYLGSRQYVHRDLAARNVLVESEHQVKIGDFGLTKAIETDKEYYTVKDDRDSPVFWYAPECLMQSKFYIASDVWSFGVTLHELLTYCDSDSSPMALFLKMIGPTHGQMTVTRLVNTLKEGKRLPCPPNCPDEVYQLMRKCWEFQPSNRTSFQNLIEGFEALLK

[8] = biological target: Tyrosine-protein kinase JAK2 (Homo sapiens, UniProt O60674); experiment: Inhibition of human JAK2 incubated for 20 mins prior to MgCl2 addition measured after 90 mins by mobility shift assay
Sequence of Tyrosine-protein kinase JAK2 (O60674 whole entry): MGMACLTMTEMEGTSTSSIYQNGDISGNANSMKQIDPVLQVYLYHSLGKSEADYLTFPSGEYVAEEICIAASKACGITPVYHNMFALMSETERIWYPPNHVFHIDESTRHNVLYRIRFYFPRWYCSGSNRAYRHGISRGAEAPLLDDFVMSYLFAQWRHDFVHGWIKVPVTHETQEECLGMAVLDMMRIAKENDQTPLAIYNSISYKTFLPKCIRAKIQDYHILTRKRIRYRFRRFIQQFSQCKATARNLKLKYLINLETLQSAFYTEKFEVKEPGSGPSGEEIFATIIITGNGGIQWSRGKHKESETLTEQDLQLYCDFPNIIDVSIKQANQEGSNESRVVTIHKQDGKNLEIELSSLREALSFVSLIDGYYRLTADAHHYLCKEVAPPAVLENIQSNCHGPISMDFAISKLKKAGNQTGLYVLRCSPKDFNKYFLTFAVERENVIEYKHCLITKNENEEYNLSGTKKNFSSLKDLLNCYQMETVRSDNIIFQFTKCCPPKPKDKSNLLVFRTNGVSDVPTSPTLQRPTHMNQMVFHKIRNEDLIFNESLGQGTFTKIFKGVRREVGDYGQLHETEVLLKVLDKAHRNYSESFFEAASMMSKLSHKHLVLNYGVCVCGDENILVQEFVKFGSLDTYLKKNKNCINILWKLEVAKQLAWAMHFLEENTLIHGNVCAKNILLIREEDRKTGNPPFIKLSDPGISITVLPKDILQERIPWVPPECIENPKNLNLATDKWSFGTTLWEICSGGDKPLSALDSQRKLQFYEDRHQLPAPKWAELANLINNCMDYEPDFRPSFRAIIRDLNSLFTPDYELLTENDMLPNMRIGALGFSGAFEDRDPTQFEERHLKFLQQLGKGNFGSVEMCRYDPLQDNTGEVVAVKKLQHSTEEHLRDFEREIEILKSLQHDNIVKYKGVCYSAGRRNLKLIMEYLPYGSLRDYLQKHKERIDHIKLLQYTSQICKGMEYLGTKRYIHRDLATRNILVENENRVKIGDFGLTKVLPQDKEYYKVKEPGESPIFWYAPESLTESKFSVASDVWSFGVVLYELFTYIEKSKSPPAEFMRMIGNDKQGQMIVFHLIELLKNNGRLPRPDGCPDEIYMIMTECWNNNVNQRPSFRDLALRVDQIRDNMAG

[9] = biological target: T2, Tyrosine-protein kinase JAK3 (Homo sapiens, UniProt P52333); experiment: Inhibition of human JAK3 incubated for 20 mins prior to MgCl2 addition measured after 90 mins by mobility shift assay
T2 sequence (P52333 whole entry): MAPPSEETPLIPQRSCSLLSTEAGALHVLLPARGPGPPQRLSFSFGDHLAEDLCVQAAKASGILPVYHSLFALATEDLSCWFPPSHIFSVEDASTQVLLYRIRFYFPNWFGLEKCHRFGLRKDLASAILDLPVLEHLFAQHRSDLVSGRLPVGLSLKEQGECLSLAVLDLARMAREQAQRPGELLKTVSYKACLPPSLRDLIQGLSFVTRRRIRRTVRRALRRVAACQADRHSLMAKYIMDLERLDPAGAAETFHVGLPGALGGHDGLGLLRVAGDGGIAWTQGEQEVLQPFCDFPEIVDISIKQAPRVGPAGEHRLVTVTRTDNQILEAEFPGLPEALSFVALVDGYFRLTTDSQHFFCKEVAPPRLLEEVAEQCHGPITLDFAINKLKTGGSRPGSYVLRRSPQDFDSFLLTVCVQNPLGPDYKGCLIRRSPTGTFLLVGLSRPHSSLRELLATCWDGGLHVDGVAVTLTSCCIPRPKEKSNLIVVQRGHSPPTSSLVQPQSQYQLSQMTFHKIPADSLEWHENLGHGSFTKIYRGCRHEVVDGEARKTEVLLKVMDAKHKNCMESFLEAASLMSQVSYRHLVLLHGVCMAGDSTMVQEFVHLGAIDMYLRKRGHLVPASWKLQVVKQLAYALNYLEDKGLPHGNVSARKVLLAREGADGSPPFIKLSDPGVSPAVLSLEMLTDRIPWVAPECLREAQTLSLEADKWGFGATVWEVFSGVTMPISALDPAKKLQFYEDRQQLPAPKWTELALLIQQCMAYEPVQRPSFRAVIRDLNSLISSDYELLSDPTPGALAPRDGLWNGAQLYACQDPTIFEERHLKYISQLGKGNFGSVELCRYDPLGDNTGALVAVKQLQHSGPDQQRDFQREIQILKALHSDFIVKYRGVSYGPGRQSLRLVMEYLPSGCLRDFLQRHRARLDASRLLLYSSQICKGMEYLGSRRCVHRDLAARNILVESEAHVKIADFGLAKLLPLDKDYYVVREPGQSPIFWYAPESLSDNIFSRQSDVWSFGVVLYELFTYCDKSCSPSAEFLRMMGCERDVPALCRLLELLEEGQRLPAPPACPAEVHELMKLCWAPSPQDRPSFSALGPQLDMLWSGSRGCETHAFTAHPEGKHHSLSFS

[10] = biological target: Cyclin-dependent kinase 1 (Homo sapiens, UniProt P06493); experiment: Inhibition of human CDK1 incubated for 20 mins prior to MgCl2 addition measured after 90 mins by mobility shift assay
Sequence of Cyclin-dependent kinase 1 (P06493 whole entry): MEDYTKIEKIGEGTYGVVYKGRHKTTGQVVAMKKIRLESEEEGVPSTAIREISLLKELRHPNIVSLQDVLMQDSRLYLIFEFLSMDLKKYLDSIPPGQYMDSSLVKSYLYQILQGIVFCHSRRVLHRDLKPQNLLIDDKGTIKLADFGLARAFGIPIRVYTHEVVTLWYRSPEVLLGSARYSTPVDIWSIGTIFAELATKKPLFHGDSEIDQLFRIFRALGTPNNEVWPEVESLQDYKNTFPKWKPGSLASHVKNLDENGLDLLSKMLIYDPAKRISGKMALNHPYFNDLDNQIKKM

[11] = biological target: Cyclin-dependent kinase 2 (Homo sapiens, UniProt P24941); experiment: Inhibition of human CDK2 incubated for 20 mins prior to MgCl2 addition measured after 90 mins by mobility shift assay
[12] = biological target: Cyclin-dependent kinase 9 (Homo sapiens, UniProt P50750); experiment: Inhibition of human CDK9 incubated for 20 mins prior to MgCl2 addition measured after 90 mins by mobility shift assay
Sequence of Cyclin-dependent kinase 9 (P50750 whole entry): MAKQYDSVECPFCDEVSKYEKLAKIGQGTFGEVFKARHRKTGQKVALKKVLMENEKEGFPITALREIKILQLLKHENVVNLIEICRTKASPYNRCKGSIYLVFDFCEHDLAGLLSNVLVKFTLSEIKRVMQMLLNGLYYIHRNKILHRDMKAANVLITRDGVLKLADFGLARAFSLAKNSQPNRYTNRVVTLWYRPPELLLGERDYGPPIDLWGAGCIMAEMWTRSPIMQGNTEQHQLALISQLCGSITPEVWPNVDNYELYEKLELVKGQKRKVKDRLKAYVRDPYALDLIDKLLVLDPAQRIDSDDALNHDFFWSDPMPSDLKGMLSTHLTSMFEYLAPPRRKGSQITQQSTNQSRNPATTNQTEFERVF

Compound	IC50 [1] [µM]	IC50 [2] [µM]	fraction unbound at 0.5 h, 10 µM [3]	IC50 [4] [µM]	IC50 [5] [µM]	IC50 [6] [µM]	IC50 [7] [µM]	IC50 [8] [µM]	IC50 [9] [µM]	IC50 [10] [µM]	IC50 [11] [µM]	IC50 [12] [µM]
COc1cc2c(Nc3ccc(NC(=O)c4ccccc4)cc3)nc(C)nc2cc1O	2.2	0.39	0.097	> 30	> 30	> 30	> 30	> 30	> 30	> 30	> 30	> 30
COc1cc2c(Nc3ccc(NC(=O)c4ccccc4)cc3)ncnc2cc1OCC(N)=O	> 22	> 22		0.155	> 30	> 30	> 30	> 30	> 30	> 30	> 30	> 30
O=C(Nc1ccc(NC(=O)c2ccccn2)cc1)c1cccc(-c2c[nH]c(=O)[nH]c2=O)c1	0.35	0.005	0.019	7.51	> 30	> 30	> 30	> 30	> 30	> 30	> 30	> 30
COc1cc(C(=O)Nc2ccc(NC(=O)c3ccccc3)cc2)cc(-c2c[nH]c(=O)[nH]c2=O)c1O	0.26	0.02	0.019									
COc1cc2c(Nc3ccc(NC(=O)c4ccccc4)cc3)nc(N)nc2cc1O	10.5	1.7	0.023	> 30	> 30	> 30	> 30	> 30	> 30	> 30	> 30	> 30
COc1cc2c(Nc3ccc(NC(=O)c4ccccc4)cc3)nc(NCCc3ccccn3)nc2cc1O	0.65	0.38	< 0.01	> 30	0.579	> 30	> 30	> 30	> 30	> 30	> 30	> 30
COc1cc(C(=O)Nc2ccc(NC(=O)c3ccccc3)cc2)ccc1OCC(N)=O	> 22	> 22										
O=c1[nH]cc(-c2cccc(Br)c2)c(=O)[nH]1		50										
COc1cc(C(=O)Nc2ccc(NC(=O)c3ccccc3)cc2)ccc1OCC(=O)O	> 67	23		> 30	> 30	> 30	> 30	> 30	> 30	> 30	> 30	> 30
COc1cc2c(Nc3ccc(NC(=O)c4ccccc4)cc3)nc(NCCCn3ccnc3)nc2cc1O	4.5	1.12	0.012									
COc1cc2c(Nc3ccc(NC(=O)c4ccccc4)cc3)nc(Cc3ccccc3)nc2cc1O	4.8	1.8	< 0.01									
COc1cc2c(Nc3ccc(NC(=O)c4ccccc4)cc3)nc(Cl)nc2cc1O	0.37	0.65	0.021									
COc1cc(C(=O)Nc2ccc(NC(=O)c3ccccn3)cc2)cc(-c2cnc(=O)[nH]c2)c1	4.2	0.98	< 0.01									
COc1cc(C(=O)Nc2ccc(NC(=O)c3ccccn3)cc2)cc(N2CCC(=O)NC2=O)c1	1.7	0.071	0.097	14.3	> 30	> 30	> 30	> 30	> 30	> 30	> 30	> 30
COc1ccc(C(=O)Nc2ccc(NC(=O)c3ccccn3)cc2)cc1-c1c[nH]c(=O)[nH]c1=O	> 22	0.95	< 0.01	> 30	> 30	> 30	> 30	> 30	> 30	> 30	> 30	> 30
COc1cc(C(=O)Nc2ccc(NC(=O)c3ccccn3)cc2)cc(-c2nn[nH]n2)c1	21	0.55	0.032									

Further molecules by falling IC50 [2], results first:

IC50 [1] [µM]	IC50 [2] [µM]	fraction unbound at 0.5 h, 10 µM [3]	IC50 [4] [µM]	IC50 [5] [µM]	IC50 [6] [µM]	IC50 [7] [µM]	IC50 [8] [µM]	IC50 [9] [µM]	IC50 [10] [µM]	IC50 [11] [µM]	IC50 [12] [µM]	Compound
	1950											O=c1[nH]cc(-c2cccc([N+](=O)[O-])c2)c(=O)[nH]1
35	19		0.0273	24.4	> 30	> 30	> 30	> 30	> 30	> 30	> 30	COc1cc2c(Nc3ccc(NC(=O)c4ccccc4)cc3)ncnc2cc1OCCO
6.7	3.2	< 0.01	0.689	> 30	> 30	> 30	> 30	> 30	> 30	> 30	> 30	COc1cc2c(Nc3ccc(NC(=O)c4ccccc4)cc3)ncnc2cc1OCC(=O)O
> 22	1.7	0.016										COc1cc(C(=O)Nc2ccc(NC(=O)c3ccccn3)cc2)cc(-c2nc(=O)o[nH]2)c1
2.7	1.5	< 0.01										COc1cc2c(Nc3ccc(NC(=O)c4ccccc4)cc3)nc(-c3ccccn3)nc2cc1O
1.3	0.26		0.275	> 30	> 30	> 30	> 30	> 30	> 30	> 30	> 30	COc1cc2c(Nc3ccc(NC(=O)c4ccccc4)cc3)ncnc2cc1O
3.1	0.05	< 0.01	23.1	> 30	> 30	> 30	> 30	> 30	> 30	> 30	> 30	O=C(Nc1ccc(NC(=O)c2ccccn2)cc1)c1ccc(O)c([N+](=O)[O-])c1
0.027	0.0017		> 30	> 30	> 30	> 30	> 30	> 30	> 30	> 30	> 30	COc1cc(C(=O)Nc2ccc(NC(=O)c3ccccn3)cc2)cc(-c2c[nH]c(=O)[nH]c2=O)c1
